The subject of one experiment is S. aureus. To be noted: cited from earlier work.
Another experiment deals with C. violaceum. To be noted: cited from earlier work.
In another experiment the test system is P. aeruginosa. To be noted: cited from earlier work.
Another experiment has as its system P. fluorescens. To be noted: cited from earlier work.
Another experiment deals with E. coli. To be noted: E. coli O157:H7; cited from earlier work.
The subject of the next experiment is Burkholderia. To be noted: cited from earlier work.
Another experiment deals with Acinetobacter. To be noted: cited from earlier work.
The next experiment has as its system C. violaceum (CV026). Briefly: Violaceum assay (modified, butanol extraction). The class given is cell-based, Chromobacterium violaceum. On the procedure:
SUMMARY OF METHODS: (+)-Catechin was used as a positive control in the halo and violaceum assays. Varying concentrations of the composition of EXAMPLE XI or catechin mixed with C. violaceum were added to an agar plate and the generated halo was analyzed both by visual inspection and measurement. Method for Violaceum assays included adding either the composition of EXAMPLE XI or catechin to a solution of C. violaceum (strain CV026). After workup, the solutions were transferred to a 96 well plate and optical density was recorded at 590 nm. Optical density values were normalized to unextracted samples as a control.
Violaceum Assay: The violaceum assay was adapted from the method of Blosser, et al., Journal of Microbiological Methods 2000, 40, pp. 47-55. The model composition and Catechin were suspended/dissolved in ethanol. […] The OD600 of each culture was measured to be used to normalize violaceum levels to total biomass. […] The optical density was measured at 590 nm. The OD590 values were normalized to the biomass measurements determined for the unextracted samples.
VIOLACEUM ASSAY: The Violaceum assay was performed to further corroborate the results obtained in the Halo assay and to provide a quantitative measure of activity. This assay is based on the same principles as for the Halo assay, but since the assay is performed in solution, violaceum production can be more readily quantified. […]

Experiment [1] has as its system P. aeruginosa (ATCC 10145). Kind of experiment: Biofilm assay (crystal violet). The class given is cell-based, Pseudomonas aeruginosa. To be noted: 0.25-5 mg/mL, overnight, crystal violet OD 590 nm. How it is done: (§1) Biofilm assay: The biofilm assay was based on the method of Chong, et al. (2011). The model composition and Catechin were prepared at 100 mg/mL in ethanol. Appropriate volumes of each were added to eight replicate wells of a v-well 96-well plate to result in 0.25, 0.5, 1.25 and 5 mg/mL final concentrations for a 200 microliter final volume. The plate was air dried until all of the ethanol has evaporated. From fresh overnight cultures of P. aeruginosa (ATCC 10145) and S. aureus (ATCC 12600), solutions at OD600 of 0.1 were prepared in Nutrient broth/0.5% glucose. Two hundred microliters of the cultures were added to all wells and mixed by pipetting. The plates were covered with breathable films and incubated overnight without shaking at 37 degrees C. The cultures were removed, and the plates rinsed several times with water. Two hundred microliters of 0.1% crystal violet was added to each well and incubated at room temperature for 30 minutes. […] One hundred microliters of the solubilized crystal violet was transferred to a flat-bottom polystyrene plate and the optical density measured at 590 nm.
(§2) BIOFILM ASSAY: The composition of EXAMPLE XI was evaluated for anti-biofilm activity against Pseudomonas aeruginosa and Staphylococcus aureus. […]
(§3) The plates were incubated statically overnight. […] The crystal violet was quantified by measuring the optical density at 590 nm.

Experiment [2] relates to Pseudomonas aeruginosa (ATCC 10145). Briefly: Pyocyanin assay. The class given is cell-based. To be noted: overnight culture, test materials in DMSO and in ethanol.
For the next experiment, the system named is S. aureus (ATCC 12600). Briefly: Biofilm assay (crystal violet). The class given is cell-based, Staphylococcus aureus. To be noted: 0.25-5 mg/mL, overnight, crystal violet OD 590 nm. How it is done: as §1, §2, §3
The test system of experiment [3] is Chromobacterium violaceum (CV026). Briefly: Halo assay (anti-quorum sensing). The class given is cell-based. To be noted: CV026 agar plate; for Catechin at the highest concentrations.
Setting [4] is: P. aeruginosa, strain not stated.

Like-named read-outs stand apart in the source and are kept apart here.

In the case of `O=C(O)[C@H]1O[C@@H](Oc2cc3oc(-c4ccccc4)cc(=O)c3c(O)c2O)[C@H](O)[C@@H](O)[C@@H]1O` [Baicalin], the “inhibition of quorum sensing” value in the experiment on S. aureus and with C. violaceum (C. violaceum CV026) was “inhibits quorum sensing” each time.

As to `O=C(/C=C/c1ccc(O)c(O)c1)O[C@@H]1C[C@](O)(C(=O)O)C[C@@H](O)[C@H]1O` [Chlorogenic acid], the “inhibition of quorum sensing” value with P. aeruginosa (setting [4]) is recorded as “inhibits quorum sensing”.

For `O=CC=Cc1ccccc1` [Cinnamaldehyde], the “inhibition of quorum sensing” value in the experiment with C. violaceum (C. violaceum CV026) and in the experiment with P. aeruginosa (P. aeruginosa PAO1) was “inhibits quorum sensing” in each case.

For `O=C(O[C@@H]1Cc2c(O)cc(O)cc2O[C@@H]1c1cc(O)c(O)c(O)c1)c1cc(O)c(O)c(O)c1` [EGCG], in the experiment on P. aeruginosa (setting [4]), the “inhibition of quorum sensing” value is reported as “inhibits quorum sensing”.

In the case of `COc1ccc([C@@H]2CC(=O)c3c(O)cc(O[C@@H]4O[C@H](CO[C@@H]5O[C@@H](C)[C@H](O)[C@@H](O)[C@H]5O)[C@@H](O)[C@H](O)[C@H]4O)cc3O2)cc1O` [Hesperidin], the “inhibition of quorum sensing” value in the experiment on C. violaceum (C. violaceum, strain not stated) is “inhibits quorum sensing”; in the experiment with P. fluorescens, “inhibits quorum sensing”.

On to `O=C1C[C@@H](c2ccc(O)cc2)Oc2cc(O)cc(O)c21` [Naringenin], for which the “inhibition of quorum sensing” value in the experiment with P. aeruginosa (P. aeruginosa PAO1) is recorded as “inhibits quorum sensing”.

With `O=C(/C=C/c1ccc(O)c(O)c1)O[C@H](Cc1ccc(O)c(O)c1)C(=O)O` [Rosmarinic acid], the “inhibition of quorum sensing” value with C. violaceum (C. violaceum 31532), in the experiment on C. violaceum (C. violaceum CV026), in the experiment with E. coli and in the experiment on P. aeruginosa (P. aeruginosa PAO1) was “inhibits quorum sensing” throughout.

Turning to `C[S+]([O-])CCCCN=C=S` (centres unmarked) [Sulforaphane], in the experiment with P. aeruginosa (setting [4]), the “inhibition of quorum sensing” value is given as “inhibits quorum sensing”.

As to `O=C1OCC2OC(=O)c3cc(O)c(O)c(O)c3-c3c(O)c(O)c(O)c4c3C(=O)OC(C2OC(=O)c2cc(O)c(O)c(O)c2-c2c1cc(O)c(O)c2O)C1OC(=O)c2c-4c(O)c(O)c(O)c2C1O` (centres unmarked) [Vescalagin], the “inhibition of quorum sensing” value in the experiment on P. aeruginosa (setting [4]), in the experiment with Burkholderia and in the experiment with Acinetobacter was “inhibits quorum sensing” throughout.

For the molecule (+)-Catechin, the “inhibition of violaceum production (quorum sensing)” value with C. violaceum (CV026) (highest concentration tested, 5 mg/mL, OD590 normalized to biomass) is on record as “over 85%”. Further, the “inhibition of violaceum production” value in the experiment on C. violaceum (CV026) (three lowest concentrations tested (1.25, 0.5 and 0.25 mg/mL)) is reported as 10-25%. The anti-biofilm activity entry (in [1]; with S. aureus (ATCC 12600)) was “similar” throughout. Also, in [2], the “effect on pyocyanin production” value is listed as “slightly enhances production”. For the same molecule, in experiment [3], the “bacterial growth in halo assay” value is given as “antibiotic effect inhibiting growth of the bacteria”.

The record behind these values is patent publication US20210369753A1, “NUTRIENT COMPOSITION ABLE TO INHIBIT QUORUM SENSING” (Brilliant Lab LLC, priority 2020, published 2021).
